US11198713B2, “Agents modulating beta-catenin functions and methods thereof” (FOG PHARMACEUTICALS, INC., priority 2017, dated 2021)
Numbered stars: 1 amine (or outer) side, 2 acyl side, 3 side chain; on linkers, the order of the positions; unused ones are H or OH. Bridge positions count the residues as written; N and C are the ends. Square brackets hold non-standard residues; d marks the D form. Peptide text beside a SMILES is read from it. X12 = CN(CC=[*:3])CCC[C@@](C)(N[*:1])C(=O)[*:2]; X6 = CN(CC=[*:3])CC[C@](C)(N[*:1])C(=O)[*:2]; X13 = C[C@@](CCCCC=[*:3])(N[*:1])C(=O)[*:2]; X7 = C[C@](CCCCC=[*:3])(N[*:1])C(=O)[*:2]

Each compound was assayed against T1, full-length beta-catenin (Axin site) (Homo sapiens, UniProt P35222) (assay: Competition fluorescence polarization assay (Axin site probe)). Details: competition fluorescence polarization, Table 2; read-out: in vitro FP EC50.
T1 construct: 15 nM full-length beta-catenin, 20 nM FITC labeled peptide in buffer
T1 sequence (P35222 1-781): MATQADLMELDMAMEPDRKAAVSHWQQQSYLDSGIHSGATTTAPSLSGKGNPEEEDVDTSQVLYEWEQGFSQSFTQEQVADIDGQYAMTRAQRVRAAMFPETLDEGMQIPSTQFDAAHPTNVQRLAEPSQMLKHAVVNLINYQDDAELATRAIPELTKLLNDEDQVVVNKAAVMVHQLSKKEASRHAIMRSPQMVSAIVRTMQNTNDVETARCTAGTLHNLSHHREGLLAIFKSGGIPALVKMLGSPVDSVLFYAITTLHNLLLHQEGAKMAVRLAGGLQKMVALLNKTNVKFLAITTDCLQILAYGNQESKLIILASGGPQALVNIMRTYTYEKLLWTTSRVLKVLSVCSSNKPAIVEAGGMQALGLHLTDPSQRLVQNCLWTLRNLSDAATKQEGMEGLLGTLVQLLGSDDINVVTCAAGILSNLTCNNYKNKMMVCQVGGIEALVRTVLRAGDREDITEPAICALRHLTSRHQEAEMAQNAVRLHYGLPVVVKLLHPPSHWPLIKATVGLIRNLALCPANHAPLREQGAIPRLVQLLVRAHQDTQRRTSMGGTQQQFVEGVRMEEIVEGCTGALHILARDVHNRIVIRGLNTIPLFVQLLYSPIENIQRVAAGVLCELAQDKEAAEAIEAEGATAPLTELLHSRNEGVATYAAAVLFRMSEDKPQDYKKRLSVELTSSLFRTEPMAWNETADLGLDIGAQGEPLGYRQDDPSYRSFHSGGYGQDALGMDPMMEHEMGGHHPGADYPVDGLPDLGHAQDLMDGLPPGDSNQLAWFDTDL
Assay type: binding
Summary of the method: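 Competition FP: 15 nM full-length β-catenin pre-incubated 5 min with 20 nM FITC-labelled stapled Axin-site peptide, then titrated peptide added (3-fold series from 5 μM) for 15 min in the dark. Buffer 50 mM Tris pH 8.0, 250 mM NaCl, 2% glycerol, 0.5 mM EDTA; duplicate reads.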
`CC[C@H](C)[C@@H]1NC(=O)[C@](C)(NC(=O)[C@H](CCC(N)=O)NC(=O)[C@@H]2CCCN2C(C)=O)CCCCC=CCOC(=O)N2CC(C(=O)N[C@@H](Cc3c[nH]cn3)C(=O)N[C@H](C(=O)N[C@@H](CCCNC(=N)N)C(=O)N[C@@H](CCCNC(=N)N)C(=O)N[C@H](C(=O)N[C@@H](Cc3c[nH]c4ccccc34)C(=O)N[C@@H](CCCNC(=N)N)C(N)=O)C(C)C)C(C)C)(C2)NC(=O)[C@H](CC(=O)O)NC(=O)[C@H](CC(C)C)NC1=O` (single isomer, unassigned) [FP0735c, Ac-P-Q-R6-I-L-D-MA-H-V-R-R-V-W-R-NH2] was tested, and the EC50 was 500 to 5000 nM.
`CC[C@H](C)[C@@H]1NC(=O)[C@H](Cc2cccnc2)NC(=O)[C@H](C)NC(=O)[C@H](CC(=O)O)NC(=O)[C@H](CC(C)C)NC(=O)[C@H]([C@@H](C)CC)NC(=O)[C@](C)(NC(=O)[C@H](C)NC(C)=O)CCCCCCC=CCOC(=O)N2CC[C@@](C(=O)N[C@@H](CCCNC(=N)N)C(=O)N[C@H](C(=O)N[C@@H](Cc3c[nH]c4ccccc34)C(N)=O)C(C)C)(C2)NC1=O` [FP0537c, Ac-A-R8-I-L-D-A-3pyr-I-MB-R-V-W-NH2] was tested, and the EC50 was greater than 5000 nM.
With `CC[C@H](C)[C@@H]1NC(=O)[C@@](C)(NC(=O)[C@H](CCC(N)=O)NC(=O)[C@@H]2CCCN2C(C)=O)CCCCC=CCN2CC(C(=O)N[C@@H](Cc3c[nH]cn3)C(=O)N[C@H](C(=O)N[C@@H](CCCNC(=N)N)C(=O)N[C@@H](CCCNC(=N)N)C(=O)N[C@H](C(=O)N[C@@H](Cc3c[nH]c4ccccc34)C(=O)N[C@@H](CCCNC(=N)N)C(N)=O)C(C)C)C(C)C)(C2)NC(=O)[C@H](CC(=O)O)NC(=O)[C@H](CC(C)C)NC1=O` (single isomer, unassigned) [FP0736a, Ac-P-Q-S6-I-L-D-MA-H-V-R-R-V-W-R-NH2] the EC50 was 100 to 500 nM.
In the case of `CC[C@H](C)[C@@H]1NC(=O)[C@H](Cc2c[nH]cn2)NC(=O)[C@H](C)NC(=O)[C@H](CC(=O)O)NC(=O)[C@H](CC(C)C)NC(=O)[C@H]([C@@H](C)CC)NC(=O)[C@](C)(NC(=O)[C@H](C)NC(C)=O)CCCCC=CCN(C)CC[C@@](C)(C(=O)N[C@@H](CCCNC(=N)N)C(=O)N[C@H](C(=O)N[C@@H](Cc2c[nH]c3ccccc23)C(N)=O)C(C)C)NC1=O` [FP0502a, Ac-A-R6-I-L-D-A-H-I-MF-R-V-W-NH2] (Ac-A[X7]ILDAHI[X6]RVW-NH2; staple 2-9), the EC50 is reported as 500 to 5000 nM.
`CCC[C@H](NC(=O)[C@]12CCN(C1)C(=O)OCC=CCCCCCC[C@@](C)(NC(=O)[C@H](C)NC(C)=O)C(=O)N[C@@H]([C@@H](C)CC)C(=O)N[C@@H](CC(C)C)C(=O)N[C@@H](CC(=O)O)C(=O)N[C@@H](C)C(=O)N[C@@H](Cc1ccccn1)C(=O)N[C@@H]([C@@H](C)CC)C(=O)N2)C(=O)N[C@H](C(=O)N[C@@H](Cc1c[nH]c2ccccc12)C(N)=O)C(C)C` (single isomer, unassigned) [FP0567c Isomer 2, Ac-A-R8-I-L-D-A-2pyr-I-MB-Nva-V-W-NH2] gave an EC50 greater than 5000 nM.
`CC[C@H](C)[C@@H]1NC(=O)[C@H](Cc2ccccn2)NC(=O)[C@H](C)NC(=O)[C@H](CC(=O)O)NC(=O)[C@H](CC(C)C)NC(=O)[C@H]([C@@H](C)CC)NC(=O)[C@](C)(NC(=O)[C@H](C)NC(C)=O)CCCCCCC=CCOC(=O)N2CC[C@@](C(=O)N[C@@H](Cc3cccs3)C(=O)N[C@H](C(=O)N[C@@H](Cc3c[nH]c4ccccc34)C(N)=O)C(C)C)(C2)NC1=O` (single isomer, unassigned) [FP0571c Isomer 1, Ac-A-R8-I-L-D-A-2pyr-I-MB-thi-V-W-NH2] was tested, and the EC50 was greater than 5000 nM.
`CC[C@H](C)[C@@H]1NC(=O)[C@H](Cc2c[nH]cn2)NC(=O)[C@H](C)NC(=O)[C@H](CC(=O)O)NC(=O)[C@H](CC(C)C)NC(=O)[C@H]([C@@H](C)CC)NC(=O)[C@](C)(NC(=O)[C@H](C)NC(C)=O)CCCCCCC=CCOC(=O)N2CC[C@@](C(=O)N[C@@H](C)C(=O)N[C@H](C(=O)N[C@@H](Cc3c[nH]c4ccccc34)C(N)=O)C(C)C)(C2)NC1=O` [FP0410c, Ac-A-R8-I-L-D-A-H-I-MB-A-V-W-NH2] showed an EC50 of 100 to 500 nM.
For `CC[C@H](C)[C@@H]1NC(=O)C2(NC(=O)[C@H](CCC(N)=O)NC(=O)[C@@H]3CCCN3C(C)=O)CN(C2)C(=O)OCC=CCCCCC[C@@](C)(C(=O)N[C@@H](Cc2c[nH]cn2)C(=O)N[C@H](C(=O)N[C@@H](CCCNC(=N)N)C(=O)N[C@@H](CCCNC(=N)N)C(=O)N[C@H](C(=O)N[C@@H](Cc2c[nH]c3ccccc23)C(=O)N[C@@H](CCCNC(=N)N)C(N)=O)C(C)C)C(C)C)NC(=O)[C@H](CC(=O)O)NC(=O)[C@H](CC(C)C)NC1=O` (single isomer, unassigned) [FP0728c, Ac-P-Q-MA-I-L-D-S7-H-V-R-R-V-W-R-NH2], the EC50 was 500 to 5000 nM.
`CC[C@H](C)[C@@H]1NC(=O)[C@@](C)(NC(=O)[C@H](CCC(N)=O)NC(=O)[C@@H]2CCCN2C(C)=O)CCCCCC=CCN2CC[C@@](C(=O)N[C@@H](Cc3c[nH]cn3)C(=O)N[C@H](C(=O)N[C@@H](CCCNC(=N)N)C(=O)N[C@@H](CCCNC(=N)N)C(=O)N[C@H](C(=O)N[C@@H](Cc3c[nH]c4ccccc34)C(=O)N[C@@H](CCCNC(=N)N)C(N)=O)C(C)C)C(C)C)(C2)NC(=O)[C@H](CC(=O)O)NC(=O)[C@H](CC(C)C)NC1=O` (single isomer, unassigned) [FP0763a, Ac-P-Q-S7-I-L-D-MB-H-V-R-R-V-W-R-NH2] was tested, and the EC50 was 500 to 5000 nM.
Compound `CC[C@H](C)[C@@H]1NC(=O)[C@H](Cc2c[nH]cn2)NC(=O)[C@H](C)NC(=O)[C@H](CC(=O)O)NC(=O)[C@H](CC(C)C)NC(=O)[C@H]([C@@H](C)CC)NC(=O)[C@](C)(NC(=O)[C@H](C)NC(C)=O)CCCN(C)CC=CCCCC[C@@](C)(C(=O)N[C@@H](CCCNC(=N)N)C(=O)N[C@H](C(=O)N[C@@H](Cc2c[nH]c3ccccc23)C(N)=O)C(C)C)NC1=O` [FP0507a, Ac-A-MI-I-L-D-A-H-I-S6-R-V-W-NH2] (Ac-A[X12]ILDAHI[X13]RVW-NH2; staple 2-9) has an EC50 of less than 100 nM.
With `CC[C@H](C)[C@@H]1NC(=O)[C@H](Cc2c[nH]cn2)NC(=O)[C@H](C)NC(=O)[C@H](CCS(C)(=O)=O)NC(=O)[C@H](CC(C)C)NC(=O)[C@H]([C@@H](C)CC)NC(=O)[C@](C)(NC(=O)[C@H](C)NC(C)=O)CCCCCCC=CCOC(=O)N2CC[C@@](C(=O)N[C@@H](CCCNC(=N)N)C(=O)N[C@H](C(=O)N[C@@H](Cc3c[nH]c4ccccc34)C(N)=O)C(C)C)(C2)NC1=O` [FP0629c, Ac-A-R8-I-L-M2O-A-H-I-MB-R-V-W-NH2] the EC50 was 500 to 5000 nM.
`CC[C@H](C)[C@@H]1NC(=O)[C@](C)(NC(=O)[C@H](CCC(N)=O)NC(=O)[C@@H]2CCCN2C(C)=O)CCCC=CCOC(=O)N2CC(C(=O)N[C@@H](Cc3c[nH]cn3)C(=O)N[C@H](C(=O)N[C@@H](CCCNC(=N)N)C(=O)N[C@@H](CCCNC(=N)N)C(=O)N[C@H](C(=O)N[C@@H](Cc3c[nH]c4ccccc34)C(=O)N[C@@H](CCCNC(=N)N)C(N)=O)C(C)C)C(C)C)(C2)NC(=O)[C@H](CC(=O)O)NC(=O)[C@H](CC(C)C)NC1=O` (single isomer, unassigned) [FP0733c, Ac-P-Q-R5-I-L-D-MA-H-V-R-R-V-W-R-NH2] gave an EC50 of 500 to 5000 nM.
Work on `CC[C@H](C)[C@@H]1NC(=O)[C@H](Cc2c[nH]cn2)NC(=O)[C@H](C)NC(=O)[C@H](CC(=O)O)NC(=O)[C@H](CC(C)C)NC(=O)[C@H]([C@@H](C)CC)NC(=O)[C@](C)(NC(=O)[C@H](C)NC(C)=O)CCCCCCC=CCOC(=O)N2CC[C@@](C(=O)N[C@@H](CCCNC(=N)N(C)C)C(=O)N[C@H](C(=O)N[C@@H](Cc3c[nH]c4ccccc34)C(N)=O)C(C)C)(C2)NC1=O` [FP0639c, Ac-A-R8-I-L-D-A-H-I-MB-ADMA-V-W-NH2] yielded an EC50 of less than 100 nM.

Same assay, conditions: competition with FITC labeled Axin-site probe, 15 nM full-length beta-catenin; read-out: FP EC50
`CC[C@H](C)[C@@H]1NC(=O)[C@@]2(NC(=O)[C@H](CCC(N)=O)NC(=O)[C@@H]3CCCN3C(C)=O)CCN(CC=CCCC[C@](C)(C(=O)N[C@@H](Cc3c[nH]cn3)C(=O)N[C@H](C(=O)N[C@@H](CCCNC(=N)N)C(=O)N[C@@H](CCCNC(=N)N)C(=O)N[C@H](C(=O)N[C@@H](Cc3c[nH]c4ccccc34)C(=O)N[C@@H](CCCNC(=N)N)C(N)=O)C(C)C)C(C)C)NC(=O)[C@H](CC(=O)O)NC(=O)[C@H](CC(C)C)NC1=O)C2` (single isomer, unassigned) [FP-0743, Ac-P-Q-PR-I-L-D-R5-H-V-R-R-V-W-R-NH2] was tested, and the EC50 was greater than 5000 nM.
With `CC[C@H](C)[C@@H]1NC(=O)[C@@](C)(NC(=O)[C@H](CCC(N)=O)NC(=O)[C@@H]2CCCN2C(C)=O)CCCCCC=CCN2CC(C(=O)N[C@@H](Cc3c[nH]cn3)C(=O)N[C@H](C(=O)N[C@@H](CCCNC(=N)N)C(=O)N[C@@H](CCCNC(=N)N)C(=O)N[C@H](C(=O)N[C@@H](Cc3c[nH]c4ccccc34)C(=O)N[C@@H](CCCNC(=N)N)C(N)=O)C(C)C)C(C)C)(C2)NC(=O)[C@H](CC(=O)O)NC(=O)[C@H](CC(C)C)NC1=O` (single isomer, unassigned) [FP-0738, Ac-P-Q-S7-I-L-D-Az-H-V-R-R-V-W-R-NH2] the EC50 was 200 nM.
